We go through three compounds from paper PMC3704224 (Analytical chemistry, 2013).

The subject of test [1] is PTPN1. The settings on record: read-out: IC50, PTPN1 inhibition (previous reports); cited from earlier work.
For test [2], the system named is PTPN2. The settings on record: read-out: KM for PTPN2; cited from earlier work.
In test [3] the test system is PTP activity in single A431 cells. Nature of the test: Single A431 cell PTP activity. The format is cell-based, human. The settings on record: single A431 cells pretreated with 1 mM; Q1 = 36%, Q3 = 77%.

On to `O=C1C=Cc2ccccc2C1=O` [1,2-naphthoquinone], for which the IC50 in test [1] is 1600 to 5000 nM.
Take `N[C@@H](Cc1ccc(OP(=O)(O)O)cc1)C(=O)O` [phosphotyrosine]: the Km in test [2] was 300 µM.
In the case of sodium pervanadate, the IC50 in test [1] was 400 nM. The “median phosphorylation remaining in 60 s (inhibition of dephosphorylation)” value in test [3] came out at 53%.
